According to paper PMC9098913, “In vitro reconstitution of Escherichia coli divisome activation” (Nature Communications, 2022):

Experiment: Diffusion coefficient (Dcoeff) of FtsA from FRAP
Conditions: for Diffusion Coefficient, mean: Fig. 3j; for Dcoeff: Fig. S3i/S3j
Description: We could also use the data from these bleaching experiments to quantify the membrane-binding kinetics and diffusion of membrane-bound proteins by analysing the change of the fluorescence profile during recovery.
Equimolar concentrations of Cy3- and Cy5-labelled FtsA, supplemented with 20% unlabelled FtsA were used to study FRET and FRAP. Five pre-bleach frames were acquired, followed by acceptor photobleaching of a rectangular ROI with 40% 641 nm laser power and a dwell size of 1 µs/pixel, 75% overlapping lines. The recovery of the signal or the increase in donor intensity were measured with either two frames or one frame per second.
Bleaching the acceptor dye leads to an increase in the donor intensity, which can be used to quantify the Foerster Resonance energy transfer (FRET)[48]. FRET efficiency was quantified with E%=Ipost/Ipost+Ipre⋅100 , where Ipost is the intensity of the […] and Ipre is the […]. […] To extract the contribution of both processes, we adjusted a routine recently published by Gerganova et al.[33]. In short, the code provides the contribution of both modes of recovery by analysing the shape of the fluorescence recovery profile. […] Contribution of diffusion leads to a change of the slope of the outer borders of the bleached region (S4h right). Thus, by measuring the change of the slope of the border recovery, diffusion and simple on/off binding can be distinguished. We developed “FRAPdiff”, a graphical user interface, which uses the original fit routine by David Rutkowski. It can be used directly on.tiff movies with annotated bleach regions as ImageJ ROIs. In addition, we added optional bleach correction, user selectable projection axis (x or y), and optional mirroring of the recovery profiles, if bleaching was not symmetric. The original fit routine for estimating the recovery and diffusion dynamics can be found at https://github.com/davidmrutkowski/1DReflectingDiffusion. FRAPdiff is available at 10.5281/zenodo.6400639[49] under the GPLv3 open-source license.

FtsA WT: wild-type E. coli actin-homologue FtsA, membrane anchor of FtsZ
Diffusion Coefficient (0.2µM, + FtsZ, replicate Exp.4): 4.01E-02 | Diffusion Coefficient (0.2µM, + FtsZ, replicate Exp.5): 7.03E-05 | Diffusion Coefficient (0.2µM, + FtsZ, replicate Exp.6): 2.65E-03 | Diffusion Coefficient (0.2µM, + FtsZ, replicate Exp.7): 9.70E-04 | Diffusion Coefficient, mean (0.4 µM FtsA + N): 1.74E-03 µm2/s | Diffusion Coefficient, mean (0.4 µM FtsA + Z&N): 1.31E-03 µm2/s | Diffusion Coefficient, mean (0.4 µM FtsA + Z): 9.28E-04 µm2/s | Diffusion Coefficient (0.4µM FtsA alone, Mean, n=18 (WT), 9 (R286W)): 0.0094 | Diffusion Coefficient, mean (0.4 µM FtsA alone): 9.38E-03 µm2/s | Diffusion Coefficient (0.4µM FtsA alone, replicate Exp.1): 1.66E-03 | Diffusion Coefficient (0.4µM FtsA alone, replicate Exp.10): 2.61E-04 | Diffusion Coefficient (0.4µM FtsA alone, replicate Exp.11): 2.61E-03 | Diffusion Coefficient (0.4µM FtsA alone, replicate Exp.12): 1.80E-02 | Diffusion Coefficient (0.4µM FtsA alone, replicate Exp.13): 3.92E-03 | Diffusion Coefficient (0.4µM FtsA alone, replicate Exp.14): 4.91E-02 | Diffusion Coefficient (0.4µM FtsA alone, replicate Exp.15): 1.40E-02 | Diffusion Coefficient (0.4µM FtsA alone, replicate Exp.16): 4.71E-05 | Diffusion Coefficient (0.4µM FtsA alone, replicate Exp.17): 6.43E-03 | Diffusion Coefficient (0.4µM FtsA alone, replicate Exp.18): 3.05E-04 | Diffusion Coefficient (0.4µM FtsA alone, replicate Exp.2): 7.21E-03 | Diffusion Coefficient (0.4µM FtsA alone, replicate Exp.3): 3.35E-02 | Diffusion Coefficient (0.4µM FtsA alone, replicate Exp.4): 6.07E-07 | Diffusion Coefficient (0.4µM FtsA alone, replicate Exp.5): 4.86E-04 | Diffusion Coefficient (0.4µM FtsA alone, replicate Exp.6): 1.29E-02 | Diffusion Coefficient (0.4µM FtsA alone, replicate Exp.7): 1.54E-02 | Diffusion Coefficient (0.4µM FtsA alone, replicate Exp.8): 3.15E-04 | Diffusion Coefficient (0.4µM FtsA alone, replicate Exp.9): 2.76E-03 | Diffusion Coefficient (0.4 µM FtsA, FRAP, p-value […] 10^−6): 0.01 ± 0.01 µm^2/s | Diffusion Coefficient (0.4µM, + FtsN&Z, Mean, n=6 (WT), 9 (R286W)): 0.0013 | Diffusion Coefficient (0.4µM, + FtsN&Z, replicate Exp.1): 7.97E-04 | Diffusion Coefficient (0.4µM, + FtsN&Z, replicate Exp.2): 2.09E-03 | Diffusion Coefficient (0.4µM, + FtsN&Z, replicate Exp.3): 9.40E-04 | Diffusion Coefficient (0.4µM, + FtsN&Z, replicate Exp.4): 3.16E-04 | Diffusion Coefficient (0.4µM, + FtsN&Z, replicate Exp.5): 3.44E-03 | Diffusion Coefficient (0.4µM, + FtsN&Z, replicate Exp.6): 3.02E-04 | Diffusion Coefficient (0.4µM, + FtsN, Mean, n=5 (WT), 6 (R286W)): 0.0017 | Diffusion Coefficient (0.4µM, + FtsN, replicate Exp.1): 1.54E-03 | Diffusion Coefficient (0.4µM, + FtsN, replicate Exp.2): 2.97E-03 | Diffusion Coefficient (0.4µM, + FtsN, replicate Exp.3): 2.28E-03 | Diffusion Coefficient (0.4µM, + FtsN, replicate Exp.4): 1.80E-03 | Diffusion Coefficient (0.4µM, + FtsN, replicate Exp.5): 1.27E-04 | Diffusion Coefficient (0.4µM, + FtsZ, Mean, n=5 (WT), 8 (R286W)): 0.0009 | Diffusion Coefficient (0.4µM, + FtsZ, replicate Exp.1): 1.81E-03 | Diffusion Coefficient (0.4µM, + FtsZ, replicate Exp.2): 9.21E-04 | Diffusion Coefficient (0.4µM, + FtsZ, replicate Exp.3): 2.54E-06 | Diffusion Coefficient (0.4µM, + FtsZ, replicate Exp.4): 1.48E-07 | Diffusion Coefficient (0.4µM, + FtsZ, replicate Exp.5): 1.91E-03 | Diffusion Coefficient, mean (0.8 µM FtsA + N): 2.78E-04 µm2/s | Diffusion Coefficient, mean (0.8 µM FtsA + Z&N): 1.55E-03 µm2/s | Diffusion Coefficient, mean (0.8 µM FtsA + Z): 1.98E-04 µm2/s | Diffusion Coefficient (0.8µM FtsA alone, Mean, n=19 (WT), 8 (R286W)): 0.0008 | Diffusion Coefficient, mean (0.8 µM FtsA alone): 8.23E-04 µm2/s | Diffusion Coefficient (0.8µM FtsA alone, replicate Exp.1): 7.29E-03 | Diffusion Coefficient (0.8µM FtsA alone, replicate Exp.10): 4.22E-07 | Diffusion Coefficient (0.8µM FtsA alone, replicate Exp.11): 6.76E-05 | Diffusion Coefficient (0.8µM FtsA alone, replicate Exp.12): 1.41E-04 | Diffusion Coefficient (0.8µM FtsA alone, replicate Exp.13): 9.30E-04 | Diffusion Coefficient (0.8µM FtsA alone, replicate Exp.14): 4.15E-06 | Diffusion Coefficient (0.8µM FtsA alone, replicate Exp.15): 1.75E-03 | Diffusion Coefficient (0.8µM FtsA alone, replicate Exp.16): 1.00E-03 | Diffusion Coefficient (0.8µM FtsA alone, replicate Exp.17): 1.78E-04 | Diffusion Coefficient (0.8µM FtsA alone, replicate Exp.18): 3.36E-03 | Diffusion Coefficient (0.8µM FtsA alone, replicate Exp.19): 2.24E-04 | Diffusion Coefficient (0.8µM FtsA alone, replicate Exp.2): 2.12E-04 | Diffusion Coefficient (0.8µM FtsA alone, replicate Exp.3): 6.52E-08 | Diffusion Coefficient (0.8µM FtsA alone, replicate Exp.4): 1.44E-04 | Diffusion Coefficient (0.8µM FtsA alone, replicate Exp.5): 5.47E-08 | Diffusion Coefficient (0.8µM FtsA alone, replicate Exp.6): 4.93E-07 | Diffusion Coefficient (0.8µM FtsA alone, replicate Exp.7): 2.75E-04 | Diffusion Coefficient (0.8µM FtsA alone, replicate Exp.8): 6.96E-06 | Diffusion Coefficient (0.8µM FtsA alone, replicate Exp.9): 4.32E-05 | Diffusion Coefficient (0.8µM, + FtsN&Z, Mean, n=5 (WT), 4 (R286W)): 0.0015 | Diffusion Coefficient (0.8µM, + FtsN&Z, replicate Exp.1): 2.13E-03 | Diffusion Coefficient (0.8µM, + FtsN&Z, replicate Exp.2): 1.07E-06 | Diffusion Coefficient (0.8µM, + FtsN&Z, replicate Exp.3): 6.03E-04 | Diffusion Coefficient (0.8µM, + FtsN&Z, replicate Exp.4): 3.04E-03 | Diffusion Coefficient (0.8µM, + FtsN&Z, replicate Exp.5): 1.98E-03 | Diffusion Coefficient (0.8µM, + FtsN, Mean, n=4 (WT), 3 (R286W)): 0.000278 | Diffusion Coefficient (0.8µM, + FtsN, replicate Exp.1): 2.14E-05 | Diffusion Coefficient (0.8µM, + FtsN, replicate Exp.2): 6.16E-05 | Diffusion Coefficient (0.8µM, + FtsN, replicate Exp.3): 1.34E-04 | Diffusion Coefficient (0.8µM, + FtsN, replicate Exp.4): 8.93E-04 | Diffusion Coefficient (0.8µM, + FtsZ, Mean, n=3 (WT), 8 (R286W)): 0.0002 | Diffusion Coefficient (0.8µM, + FtsZ, replicate Exp.1): 7.26E-07 | Diffusion Coefficient (0.8µM, + FtsZ, replicate Exp.2): 4.83E-04 | Diffusion Coefficient (0.8µM, + FtsZ, replicate Exp.3): 1.10E-04 | Dcoeff (0.10 µM FtsA, replicate 1): 5.58E-02 µm2/s | Dcoeff (0.10 µM FtsA, replicate 2): 3.42E-03 µm2/s | Dcoeff (0.10 µM FtsA, replicate 3): 1.87E-02 µm2/s | Dcoeff (0.10 µM FtsA, replicate 4): 5.22E-02 µm2/s | Dcoeff (0.10 µM FtsA, summary value): 2.68E-02 µm2/s | Dcoeff (0.20 µM FtsA, summary value): 1.77E-02 µm2/s | Dcoeff (0.40 µM FtsA, summary value): 9.38E-03 µm2/s | Dcoeff (0.80 µM FtsA, summary value): 8.23E-04 µm2/s
